The record followed here is patent US20240252488A1 (KOREA RESEARCH INSTITUTE OF CHEMICAL TECHNOLOGY, priority 2020, published 2024).

By pKd is commonly meant the Kd on a negative log10 scale, so that one unit is a factor of ten. High values mean a small Kd, low ones a large Kd.

pKd: −log10 of the molar value.

For assay [1], the system named is FADD−/− Jurkat cells. Description: Necroptosis inhibition assay, TNF-α-induced necroptosis (CellTiter-Glo 2.0). It counts as cell-based, human. Conditions: TNF-α 15 ng/mL; for Necroptosis inhibition assay (Rescue %) 1 μM: compound 1 μM; for Necroptosis inhibition assay (Rescue %) 10 μM: compound 10 μM. In short, it runs like this:
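Luminescent ATP measurement gave viability, from which cytotoxicity and necroptosis inhibition rate were derived. Before that, cells (5.0×10^5 cells/mL) saw compound at 0.1, 1 or 10 μM final for 30 minutes at room temperature, then TNF-α (15 ng/mL final) for 20 to 24 hours at 37° C.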
Background: In ATP-based viability assays light output follows the ATP content of the culture.

Assay [2] addresses T1, MLKL (Homo sapiens, UniProt Q8NB16).
T1 sequence (Q8NB16 1-471): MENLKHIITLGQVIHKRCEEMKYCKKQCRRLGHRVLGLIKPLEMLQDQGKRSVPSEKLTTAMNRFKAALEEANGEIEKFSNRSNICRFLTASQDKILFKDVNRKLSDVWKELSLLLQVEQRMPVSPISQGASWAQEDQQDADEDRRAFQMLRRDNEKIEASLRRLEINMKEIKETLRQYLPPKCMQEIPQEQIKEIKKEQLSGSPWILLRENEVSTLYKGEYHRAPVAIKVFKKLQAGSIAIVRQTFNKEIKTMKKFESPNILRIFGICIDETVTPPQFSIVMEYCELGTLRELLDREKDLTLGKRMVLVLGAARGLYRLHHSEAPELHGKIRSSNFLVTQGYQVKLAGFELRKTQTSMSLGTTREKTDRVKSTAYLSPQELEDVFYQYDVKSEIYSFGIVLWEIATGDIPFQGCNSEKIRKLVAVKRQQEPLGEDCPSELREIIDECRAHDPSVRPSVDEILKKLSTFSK
Description: Measurement of binding affinity with MLKL receptor (competitive binding assay, Kd). The arrangement: made in house; host or cells: HEK 293 cell line (T7 phage in E. coli BL21-derived host is also described). In short, it runs like this: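 qPCR of MLKL eluted from liganded beads served as the read-out, from which Kd was derived. The protein was made in HEK 293 cells with a DNA tag, and test compounds competed with the bead-bound ligand at 0.9% final DMSO.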

The target in assay [3] is T1, MLKL. Description: MLKL degradation assay in HepG2 cell line (western blot). It counts as cell-based. The arrangement: endogenous in cells; host or cells: HepG2 or HaCaT. Conditions: cell line not given; for Degradation assay (Degradation %) 1 μM: compound 1 μM; for Degradation assay (Degradation %) 10 μM: compound 10 μM. In short, it runs like this:
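Cells seeded, next day medium swapped for compound-containing medium (final 1 or 10 μM) and incubated 20-24 h at 37 °C. Lysates in RIPA with protease/phosphatase inhibitors were protein-matched by BCA, run on SDS-PAGE and immunoblotted for MLKL.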
On the technique in general: A western blot detects proteins with antibodies after separation by electrophoresis.

In the case of `Cc1ncsc1-c1ccc(CNC(=O)[C@@H]2C[C@@H](O)CN2C(=O)[C@@H](NC(=O)CN2CCC(CN3CCC(n4cc(-c5cnc(N)c(C(=O)O[C@@H](C(=O)Nc6ccc(F)cc6)c6ccccc6)n5)cn4)CC3)CC2)C(C)(C)C)cc1` [TDH-211, (R)-2-((4-fluorophenyl)amino)-2-oxo-1-phenylethyl 3-amino-6-(1-(1-((1-(2-(((S)-1-((2S,4R)-4-hydroxy-2-((4-(4-methylthiazol-5-yl)benzyl)carbamoyl)pyrrolidin-1-yl)-3,3-dimethyl-1-oxobutan-2-yl)amino)-2-oxoethyl)piperidin-4-yl)methyl)piperidin-4-yl)-1H-pyrazol-4-yl)pyrazine-2-carboxylate], in assay [1], the “Necroptosis inhibition assay (Rescue %) 1 μM” value worked out at 29.87% and the “Necroptosis inhibition assay (Rescue %) 10 μM” value is 41.58%. Besides, the pKd in assay [2] was 8.20. For the same molecule, in assay [3], the “Degradation assay (Degradation %) 1 μM” value was determined as 9.7% and the “Degradation assay (Degradation %) 10 μM” value worked out at 29.62%.
For the molecule `Nc1ncc(-c2cnn(C3CCN(CCOCCOCCNC(=O)CNc4ccc5nnn(C6CCC(=O)NC6=O)c(=O)c5c4)CC3)c2)nc1C(=O)O[C@@H](C(=O)Nc1ccc(F)cc1)c1ccccc1` (stereo partly drawn) [TDH-174, (R)-2-((4-fluorophenyl)amino)-2-oxo-1-phenylethyl 3-amino-6-(1-(1-(2-(2-(2-(2-((3-(2,6-dioxopiperidin-3-yl)-4-oxo-3,4-dihydrobenzo[d][1,2,3]triazin-6-yl)amino)acetamido)ethoxy)ethoxy)ethyl)piperidin-4-yl)-1H-pyrazol-4-yl)pyrazine-2-carboxylate], in assay [1], the “Necroptosis inhibition assay (Rescue %) 1 μM” value is recorded as 16.47% and the “Necroptosis inhibition assay (Rescue %) 10 μM” value was 42.59%. In assay [2], the negative-log Kd (pKd) is 8.66. For the same molecule, in assay [3], the “Degradation assay (Degradation %) 1 μM” value came to 49.38% and the “Degradation assay (Degradation %) 10 μM” value is 52.62%.
Turning to `Nc1ncc(-c2cnn(C3CCN(CCCCCCNC(=O)COc4ccc5c(c4)C(=O)N(C4CCC(=O)NC4=O)C5=O)CC3)c2)nc1C(=O)O[C@@H](C(=O)Nc1ccc(F)cc1)c1ccccc1` (stereo partly drawn) [TDH-165, (R)-2-((4-fluorophenyl)amino)-2-oxo-1-phenylethyl 3-amino-6-(1-(1-(6-(2-((2-(2,6-dioxopiperidin-3-yl)-1,3-dioxoisoindolin-5-yl)oxy)acetamido)hexyl)piperidin-4-yl)-1H-pyrazol-4-yl)pyrazine-2-carboxylate], in assay [1], the “Necroptosis inhibition assay (Rescue %) 1 μM” value came to 52.37% and the “Necroptosis inhibition assay (Rescue %) 10 μM” value was 4.66%. The molecule further showed a negative logarithm of the Kd (pKd) in assay [2] of 9.05. Further, in assay [3], the “Degradation assay (Degradation %) 1 μM” value came out at 62.49% and the “Degradation assay (Degradation %) 10 μM” value stood at 61.44%.
With `Nc1ncc(-c2cnn(C3CCN(C(=O)COC4CCN(c5cccc6c5C(=O)N(C5CCC(=O)NC5=O)C6=O)CC4)CC3)c2)nc1C(=O)O[C@@H](C(=O)Nc1ccc(F)cc1)c1ccccc1` (stereo partly drawn) [TDH-399, (R)-2-((4-fluorophenyl)amino)-2-oxo-1-phenylethyl 3-amino-6-(1-(1-(2-((1-(2-(2,6-dioxopiperidin-3-yl)-1,3-dioxoisoindolin-4-yl)piperidin-4-yl)oxy)acetyl)piperidin-4-yl)-1H-pyrazol-4-yl)pyrazine-2-carboxylate], in assay [1], the “Necroptosis inhibition assay (Rescue %) 1 μM” value came out at 34.21% and the “Necroptosis inhibition assay (Rescue %) 10 μM” value is on record as 27.35%. The molecule also showed a negative logarithm of the Kd (pKd) in assay [2] of 8.12. In addition, in assay [3], the “Degradation assay (Degradation %) 1 μM” value came to 74.40% and the “Degradation assay (Degradation %) 10 μM” value came out at 71.63%.
In the case of `Nc1ncc(-c2cnn([C@H]3CCN(CC4CCN(C(=O)COc5ccc6c(c5)C(=O)N(C5CCC(=O)NC5=O)C6=O)CC4)C3)c2)nc1C(=O)OC(C(=O)Nc1ccc(F)cc1)c1ccccc1` (stereo partly drawn) [TDH-284, 2-((4-fluorophenyl)amino)-2-oxo-1-phenylethyl 3-amino-6-(1-((3S)-1-((1-(2-((2-(2,6-dioxopiperidin-3-yl)-1,3-dioxoisoindolin-5-yl)oxy)acetyl)piperidin-4-yl)methyl)pyrrolidin-3-yl)-1H-pyrazol-4-yl)pyrazine-2-carboxylate], in assay [1], the “Necroptosis inhibition assay (Rescue %) 1 μM” value stood at 75.95% and the “Necroptosis inhibition assay (Rescue %) 10 μM” value was 52.77%. Further, in assay [2], the pKd is 8.59. In assay [3], the “Degradation assay (Degradation %) 1 μM” value is 42.05% and the “Degradation assay (Degradation %) 10 μM” value is reported as 58.09%.
Take `Nc1ncc(-c2cnn(C3CCN(CCCCCCCCCCNC(=O)C4CN(c5ccc6nnn(C7CCC(=O)NC7=O)c(=O)c6c5)C4)CC3)c2)nc1C(=O)O[C@@H](C(=O)Nc1ccc(F)cc1)c1ccccc1` (stereo partly drawn) [TDH-178, (R)-2-((4-fluorophenyl)amino)-2-oxo-1-phenylethyl 3-amino-6-(1-(1-(10-(1-(3-(2,6-dioxopiperidin-3-yl)-4-oxo-3,4-dihydrobenzo[d][1,2,3]triazin-6-yl)azetidine-3-carboxamido)decyl)piperidin-4-yl)-1H-pyrazol-4-yl)pyrazine-2-carboxylate]: in assay [1], the “Necroptosis inhibition assay (Rescue %) 1 μM” value is recorded as 24.45% and the “Necroptosis inhibition assay (Rescue %) 10 μM” value worked out at 28.25%. Further, the pKd in assay [2] was 7.14. Also, in assay [3], the “Degradation assay (Degradation %) 1 μM” value turned out to be 72.12% and the “Degradation assay (Degradation %) 10 μM” value was found to be 84.5%.
For the molecule `Nc1ncc(-c2cnn(C3CCN(CC4CN(C(=O)C5CCN(c6ccc7c(c6)C(=O)N(C6CCC(=O)NC6=O)C7=O)CC5)CCO4)CC3)c2)nc1C(=O)OC(C(=O)Nc1ccc(F)cc1)c1ccccc1` (centres unmarked) [TDH-305, 2-((4-fluorophenyl)amino)-2-oxo-1-phenylethyl 3-amino-6-(1-(1-((4-(1-(2-(2,6-dioxopiperidin-3-yl)-1,3-dioxoisoindolin-5-yl)piperidine-4-carbonyl)morpholin-2-yl)methyl)piperidin-4-yl)-1H-pyrazol-4-yl)pyrazine-2-carboxylate], in assay [1], the “Necroptosis inhibition assay (Rescue %) 1 μM” value worked out at 66.84% and the “Necroptosis inhibition assay (Rescue %) 10 μM” value is reported as 52.42%. The molecule further showed a negative logarithm of the Kd (pKd) in assay [2] of 8.55. Moreover, in assay [3], the “Degradation assay (Degradation %) 1 μM” value turned out to be 72.47% and the “Degradation assay (Degradation %) 10 μM” value was found to be 50.39%.
On to `Nc1ncc(-c2cnn(C3CCN(CCCN4CC5CN(C(=O)CNc6ccc7c(c6)C(=O)N(C6CCC(=O)NC6=O)C7=O)CC5C4)CC3)c2)nc1C(=O)O[C@@H](C(=O)Nc1ccc(F)cc1)c1ccccc1` (stereo partly drawn) [TDH-467, (R)-2-((4-fluorophenyl)amino)-2-oxo-1-phenylethyl 3-amino-6-(1-(1-(3-(5-((2-(2,6-dioxopiperidin-3-yl)-1,3-dioxoisoindolin-5-yl)glycyl)hexahydropyrrolo[3,4-c]pyrrol-2(1H)-yl)propyl)piperidin-4-yl)-1H-pyrazol-4-yl)pyrazine-2-carboxylate], for which, in assay [1] (FADD−/− Jurkat cells), the “Necroptosis inhibition assay (Rescue %) 1 μM” value came to 54.19% and the “Necroptosis inhibition assay (Rescue %) 10 μM” value is −9.09%. Also, the pKd in assay [2] was 9.30. Also, in assay [3], the “Degradation assay (Degradation %) 1 μM” value was determined as 93.95% and the “Degradation assay (Degradation %) 10 μM” value is 86.45%.
The matching figures for `Nc1ncc(-c2cnn(C3CCN(C4CC5(CCN(CC6CCN(C(=O)c7cccc(C(=O)NC8CCC(=O)NC8=O)c7)CC6)CC5)C4)CC3)c2)nc1C(=O)O[C@@H](C(=O)Nc1ccc(F)cc1)c1ccccc1` (stereo partly drawn) [TDH-544, (R)-2-((4-fluorophenyl)amino)-2-oxo-1-phenylethyl 3-amino-6-(1-(1-(7-((1-(3-((2,6-dioxopiperidin-3-yl)carbamoyl)benzoyl)piperidin-4-yl)methyl)-7-azaspiro[3.5]nonan-2-yl)piperidin-4-yl)-1H-pyrazol-4-yl)pyrazine-2-carboxylate]: 35.33%, 31.42%, 9.30, 69.45% and 82.68%.
On to `Nc1ncc(-c2cnn(C3CCN(CCOCCOCCNC(=O)COc4cccc5c4C(=O)N(C4CCC(=O)NC4=O)C5=O)CC3)c2)nc1C(=O)O[C@@H](C(=O)Nc1ccc(F)cc1)c1ccccc1` (stereo partly drawn) [TDH-135, (R)-2-((4-fluorophenyl)amino)-2-oxo-1-phenylethyl 3-amino-6-(1-(1-(2-(2-(2-(2-((2-(2,6-dioxopiperidin-3-yl)-1,3-dioxoisoindolin-4-yl)oxy)acetamido)ethoxy)ethoxy)ethyl)piperidin-4-yl)-1H-pyrazol-4-yl)pyrazine-2-carboxylate], for which, in assay [1], the “Necroptosis inhibition assay (Rescue %) 1 μM” value is recorded as 46.82% and the “Necroptosis inhibition assay (Rescue %) 10 μM” value turned out to be 33.77%. This molecule also had a pKd in assay [2] of 9.04. In addition, in assay [3], the “Degradation assay (Degradation %) 1 μM” value came to 23.45% and the “Degradation assay (Degradation %) 10 μM” value amounted to 57.93%.
